Test results: US20100004234A1, “SPECIFIC KINASE INHIBITORS” (Kosan Biosciences Incorporated, priority 2004, published 2010)
Like-named read-outs stand apart in the source and are kept apart here. Blank lines part the entries; values can stand above or below the compound they belong to.

Experiments:
[1] = system: ASZ001 (Basal cell carcinoma); assay: Cell proliferation assay (Cell Titer Glo); assay type: cell-based
Procedure: (§1) In one illustrative method, cells are treated with various concentrations of the inhibitor in 96 well plates, incubated at 37° C./5% CO2 for three days, and analyzed using the Cell Titer Glo kit (Promega).

BCCs in Ptc+/− mice = details: topical; cited from earlier work
MEK1 [2] = molecular target: T1, MEK1 (Homo sapiens, UniProt Q02750); details: cited from earlier work
PKA, PKC or Raf = details: cited from earlier work
[3] = system: COLO829 (Human melanoma, B-Raf V599E); assay: Cell proliferation assay (Cell Titer Glo); assay type: cell-based
Procedure: as §1
(§2) COLO829 is a human melanoma cell line. HT29 is a human colon cancer cell line. Both cell lines have a V600E B-Raf mutation. SKOV3 is an ovarian cancer cell line having wild-type B-Raf. EKR2 (extra-cellular signal regulated kinase 2) is a kinase in the Ras/B-Raf MAP kinase cascade pathway.

[4] = system: HT29 (Human colon, B-Raf V599E); assay: Cell proliferation assay (Cell Titer Glo); assay type: cell-based
Procedure: as §1, §2

[5] = system: A375 (Human melanoma, B-Raf V599E); assay: Cell proliferation assay (Cell Titer Glo); assay type: cell-based
Procedure: as §1

[6] = system: A549 (NSCLC, B-Raf wild-type); assay: Cell proliferation assay (Cell Titer Glo); assay type: cell-based
Procedure: as §1

[7] = system: DU4475 (Human breast, B-Raf V599E); assay: Cell proliferation assay (Cell Titer Glo); assay type: cell-based
Procedure: as §1

[8] = system: WM266-4 (Human melanoma, B-Raf V599D); assay: Cell proliferation assay (Cell Titer Glo); assay type: cell-based
Procedure: as §1

MEK1 [9] = molecular target: T1, MEK1; assay: Time-dependent kinase inhibition kinetics (pre-incubation, [32P]ATP filter binding); assay type: biochemical
Procedure: Typically, one measures the increase in inhibition of protein kinase activity in the presence of inhibitor over time. In one method, aliquots of a “pre-incubation” reaction mixture containing enzyme and inhibitor are assayed for activity (initial velocities) over time; increased inhibition or decreased initial velocities will be observed over time as the Michael adduct forms (Walsh, C, Enzyme Reaction Mechanisms, W.H. Freeman & Co., 1979, pp 86-94). In a second method, the time dependent loss of activity is measured as “progress curves” that measure and analyze product formed (e.g. ADP) versus time (Morrison & Walsh, Adv. Enzymol Relat Areas Mol. Biol. 1988, 61, 201-301). In either case, the time dependent inactivation can be dampened by the presence of a competing substrate, in this case ATP.
MEK1 and many other protein kinases that can be targets of the compounds useful in the methods of the invention can be obtained commercially (Invitrogen; Carlsbad, Calif.) or prepared using standard molecular biology techniques. After activation by phosphorylation, they are assayed for their ability to phosphorylate a target kinase or surrogate substrate. For example, MEK1 can be assayed in a mixture containing MEK1 (30 nM) and ERK1 (2 μM), [γ-^32P]ATP (10 uM) and MgCl2 in Mops buffer pH 7.6. Phosphorylation can be measured by isolating [γ-^32P]-phosphorylated ERK1 on phosphocellulose paper, and counting radioactive product. Alternatively, a coupled enzyme system may be used in which a product of the kinase reaction, such as ADP, is measured by analysis with a secondary system that converts that product (e.g. ADP) to an easily measurable entity (e.g. NADH); often, such coupled systems can be measured by convenient spectrophotometry assays.
To measure time-dependent inhibition using the “pre-incubation method”, MEK1 (or other kinase) is incubated with varying amounts of the lactone inhibitor; […]. Aliquots are removed at various times, added to a solution containing substrates [γ-^32P]ATP, ERK1 (or other substrate), and the other components of the reaction, and initial rates are determined as a measure of remaining enzyme activity.
For covalent inhibitors, plots of log (activity) versus time provide apparent first-order rate constants (kobsd) of enzyme activity loss. If these assays are performed at varying concentrations of inhibitor, a series of first-order plots is obtained and kobsd obtained at each inhibitor concentration. To measure time-dependent inhibition using the “progress-curve method” (see references cited above and Kuzmic et al., Methods Enzymol 2004; 383: 366-81), ERK (or other kinase) is treated with varying amounts of the lactone inhibitor, and the formation of ADP is measured continuously by a coupled assay. […] Such molecules may be competitive inhibitors but should not show time-dependent inactivation.
Those of skill in the art will recognize that within the set of compounds useful in the methods of the invention, significant variability in specificity can be achieved, allowing one to identify optimal compounds for different applications. Inhibition progress curve analysis was performed using continuous, colorimetric, or fluorimetric assays. All experiments were done at 1 mM ATP, with the exception of KDR (at 5 mM ATP).
(§3) MEK1 assays were performed using pre-incubation experiments with radioactive [^32P]ATP and filter binding of product. All other kinases were analyzed using progress curve analysis from a continuous spectrophotometric assay.

ERK2 [10] = molecular target: ERK2 (UniProt P28482); assay type: biochemical; parameters: Ki; other: ERK2; 1 mM ATP; kinact; T1/2; kinact/Ki; "the target Cys 172 residue; details: ERK2
Procedure: (§4) In either case, the time dependent inactivation can be dampened by the presence of a competing substrate, in this case ATP.
(§5) For covalent inhibitors, plots of log (activity) versus time provide apparent first-order rate constants (kobsd) of enzyme activity loss. If these assays are performed at varying concentrations of inhibitor, a series of first-order plots is obtained and kobsd obtained at each inhibitor concentration. […] Such molecules may be competitive inhibitors but should not show time-dependent inactivation.
(§6) Inhibition progress curve analysis was performed using continuous, colorimetric, or fluorimetric assays. All experiments were done at 1 mM ATP, with the exception of KDR (at 5 mM ATP).
as §3

[11] = system: EOL-1 (Human leukemia FLP1L1-PDGFRA); assay: Cell proliferation assay (Cell Titer Glo); assay type: cell-based
Procedure: as §1

[12] = system: MV4-11 (Human leukemia Flt3-ITD); assay: Cell proliferation assay (Cell Titer Glo); assay type: cell-based
Procedure: as §1

[13] = system: P815 (Mouse mastocytoma, KIT D814Y); assay: Cell proliferation assay (Cell Titer Glo); assay type: cell-based
Procedure: as §1

[14] = system: ERK1/2 activation in human T cells; details: tested at 0.3 to 3 μM; cited from earlier work
panel of 120 kinases = details: panel of some 120 kinases; cited from earlier work
rat MEK1 = rat MEK1 (Rattus norvegicus, UniProt Q01986); details: cited from earlier work
[15] = system: SKOV3 (ovarian cancer cell line, wild-type B-Raf); assay: Cell proliferation assay; assay type: cell-based; details: Homo sapiens, SK-OV-3; Table 7; SKOV3 ovarian cancer, wild-type B-Raf; read-out: Cell Line IC50 SKOV3
Procedure: as §1, §2

ERK2 [16] = molecular target: ERK2 (UniProt P28482); assay type: biochemical; parameters: "the target Cys 172 residue
Procedure: as §4, §5, §6, §3

[17] = HT29 (Human colon, B-Raf V599E), Tables 1 and 4, read-out: Kinase Inhibitor IC50
[18] = A375 (Human melanoma, B-Raf V599E), Tables 1 and 4, read-out: Kinase Inhibitor IC50
[19] = A549 (NSCLC, B-Raf wild-type), Tables 1 and 4, read-out: Kinase Inhibitor IC50
[20] = DU4475 (Human breast, B-Raf V599E), Tables 1 and 4, read-out: Kinase Inhibitor IC50
[21] = WM266-4 (Human melanoma, B-Raf V599D), Tables 1 and 4, read-out: Kinase Inhibitor IC50
[22] = COLO-829, Table 7, COLO829 human melanoma, V600E B-Raf, read-out: Cell Line IC50 COLO829
[23] = HT-29, Table 7, HT29 human colon cancer, V600E B-Raf, read-out: Cell Line IC50 HT29

Chain of rat MEK1 (Q01986 whole entry): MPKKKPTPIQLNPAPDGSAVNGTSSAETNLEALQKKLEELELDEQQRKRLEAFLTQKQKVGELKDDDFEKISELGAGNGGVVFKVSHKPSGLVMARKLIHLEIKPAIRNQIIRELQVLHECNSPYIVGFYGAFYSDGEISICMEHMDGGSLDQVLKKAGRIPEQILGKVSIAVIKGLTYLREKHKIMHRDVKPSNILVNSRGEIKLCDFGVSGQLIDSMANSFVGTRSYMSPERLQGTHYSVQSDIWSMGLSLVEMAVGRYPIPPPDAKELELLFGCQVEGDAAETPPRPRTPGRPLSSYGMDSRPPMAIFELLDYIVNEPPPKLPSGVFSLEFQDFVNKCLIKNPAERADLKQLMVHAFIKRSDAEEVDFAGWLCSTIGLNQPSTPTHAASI

IC50 ([1]; ASZ001 (Basal cell carcinoma), read-out: Kinase Inhibitor IC50): 10 µM
IC50 ([1]; BCC cell line ASZ001 in culture, read-out: IC50): ~10 µM
Compound: CCOC(=O)c1ccc(C#Cc2ccc3c(c2)C(C)(C)CCS3)nc1 [Tazarotene]
inhibition of development of BCCs (BCCs in Ptc+/− mice): > 85%

Compound: COc1cc(O)c2c(c1)CCC[C@H](O)[C@H](O)C(=O)/C=C\C[C@H](C)OC2=O [L-783,277]
reduction of the IC50 value for MEK1 by pre-incubation (MEK1 [2]; 60 min. pre-incubation): 10 fold
IC50 (MEK1 [2]; MEK1): 0.004 µM
inhibition of PKA, PKC or Raf (PKA, PKC or Raf): not

Compound: 5,6-Dihydrohypothemycin
IC50 ([3]; COLO829 (Human melanoma, B-Raf V599E), Tables 1 and 4, read-out: Kinase Inhibitor IC50): 3.7 µM
IC50 [4, 17]: 15 µM
IC50 [5, 18]: > 50 µM
IC50 [6, 19]: 107 µM
IC50 [7, 20]: 46 µM
IC50 [8, 21]: 15 µM
kinact/Ki (MEK1 [9]): None
Ki (MEK1 [9]; 1 mM ATP): 3 µM
kinact (MEK1 [9]; 1 mM ATP): None
kinact/Ki (ERK2 [10]): None
kinact (ERK2 [10]; 1 mM ATP): None
Ki (ERK2 [10]; 1 mM ATP, read-out: Ki): 28 µM

Compound: CNC(=O)c1cc(Oc2ccc(NC(=O)Nc3ccc(Cl)c(C(F)(F)F)c3)cc2)ccn1 [BAY 43-9006, Sorafenib]
GI50 ([3]; Homo sapiens, COLO-829): 6 µM
IC50 ([3]; Homo sapiens, COLO-829, read-out: Kinase Inhibitor IC50): 6 µM
IC50 ([4]; Homo sapiens, HT-29, read-out: Kinase Inhibitor IC50): 4.7 µM
IC50 ([5]; Homo sapiens, A-375, read-out: Kinase Inhibitor IC50): 4.3 µM
IC50 ([6]; Homo sapiens, A549, read-out: Kinase Inhibitor IC50): 5.5 µM
IC50 ([7]; Homo sapiens, DU-4475, read-out: Kinase Inhibitor IC50): 3.6 µM
IC50 ([11]; Homo sapiens, EOL1, read-out: Kinase Inhibitor IC50): 0.00023 µM
IC50 ([12]; Homo sapiens, MV4-11, read-out: Kinase Inhibitor IC50): 0.0023 µM
GI50 ([13]; Mus musculus, P815): 0.31 µM
IC50 ([13]; Mus musculus, P815, read-out: Kinase Inhibitor IC50): 0.31 µM
IC50 ([8]; Homo sapiens, WM 266-4, read-out: Kinase Inhibitor IC50): 5.4 µM

Compound: C[C@H]1CCCC(=O)CCC/C=C/c2cc(O)cc(O)c2C(=O)O1 [zearalenone]
inhibition of the activation of ERK1/2 [14]: not

IC50 ([3]; COLO-829, COLO829 (Human melanoma, B-Raf V599E), Tables 1 and 4, read-out: Kinase Inhibitor IC50): 7.1 µM
GI50 ([3]; Homo sapiens, COLO-829, melanoma cell line COLO829, read-out: GI50): 7.1 µM
IC50 ([4]; HT-29, HT29 (Human colon, B-Raf V599E), Tables 1 and 4, read-out: Kinase Inhibitor IC50): 4.2 µM
IC50 ([5]; A-375, A375 (Human melanoma, B-Raf V599E), Tables 1 and 4, read-out: Kinase Inhibitor IC50): 5.4 µM
IC50 ([11]; EOL1, EOL-1 (Human leukemia FLP1L1-PDGFRA), read-out: Kinase Inhibitor IC50): 0.0017 µM
GI50 ([12]; Homo sapiens, MV4-11, AML (FLT3 ITD) cell line MV-4-11, read-out: GI50): 0.012 µM
IC50 ([12]; MV4-11 (Human leukemia Flt3-ITD), read-out: Kinase Inhibitor IC50): 0.01 µM
IC50 ([13]; P815 (Mouse mastocytoma, KIT D814Y), read-out: Kinase Inhibitor IC50): 0.32 µM
GI50 ([13]; mouse mastocytoma cell line P815, constitutively active cKIT (D814Y), read-out: GI50): 0.32 µM
IC50 ([8]; WM 266-4, WM266-4 (Human melanoma, B-Raf V599D), Tables 1 and 4, read-out: Kinase Inhibitor IC50): 8.2 µM
Compound: CCN(CC)CCNC(=O)c1c(C)[nH]c(/C=C2\C(=O)Nc3ccc(F)cc32)c1C [SU11248]
IC50 ([7]; DU-4475, DU4475 (Human breast, B-Raf V599E), Tables 1 and 4, read-out: Kinase Inhibitor IC50): 4 µM
number of kinases inhibited (panel of 120 kinases): ~79

Compound: COc1cc(O)c2c(c1)/C=C/C[C@H](O)[C@H](O)C(=O)/C=C\C[C@H](C)OC2=O [(5Z)-7-oxozeaneol]
IC50 (rat MEK1): 0.411 µM

Compound: C[C@H]1C/C=C\C(=O)[C@@H](O)[C@@H](O)C[C@H]2O[C@@H]2c2cc(OCC3CCCN(C)C3)cc(O)c2C(=O)O1 (stereo partly shown) [V]
IC50 [3, 22]: 0.079 µM
IC50 [4, 23]: 0.6 µM
IC50 [15]: 15 µM
ERK2 Inhibition kinact. (ERK2 [16]; Table 7): 1 ± 0.1 × 10^−3 sec^−1
Ki (ERK2 [16]; read-out: ERK2 Inhibition Ki; Table 7): 0.94 ± 0.58 µM

IC50 [4, 17]: 5.5 µM
IC50 [5, 18]: 43 µM
IC50 [6, 19]: 48 µM
IC50 [8, 21]: 21 µM
Compound: COc1cccc(-c2cc(=O)c3ccccc3o2)c1N [PD 98059]
IC50 [7, 20]: 56 µM

IC50 [3, 22]: 0.038 µM
IC50 [4, 23]: 0.1 µM
IC50 [15]: 1.8 µM
ERK2 Inhibition kinact. (ERK2 [16]): 3.3 ± 0.4 × 10^−3 sec^−1
Ki (ERK2 [16]; Table 7; read-out: ERK2 Inhibition Ki): 2.2 ± 0.4 µM
Compound: C[C@H]1C/C=C\C(=O)[C@@H](O)[C@@H](O)C[C@H]2O[C@@H]2c2cc(O)cc(O)c2C(=O)O1 [Compound II, 4-O-desmethylhypothemycin]
